Values quoted from earlier work as cited in patent US20040101478A1, “In vivo methods of determining activity of receptor-type kinase inhibitors” (priority 2003, published 2004).

Biological target: KDR kinase (Homo sapiens, UniProt P35968)
Conditions: Kasahara et al., 2000, J. Clin. Invest. 106: 1311-1319; cited from earlier work

KDR kinase, sequence (P35968 20-1356): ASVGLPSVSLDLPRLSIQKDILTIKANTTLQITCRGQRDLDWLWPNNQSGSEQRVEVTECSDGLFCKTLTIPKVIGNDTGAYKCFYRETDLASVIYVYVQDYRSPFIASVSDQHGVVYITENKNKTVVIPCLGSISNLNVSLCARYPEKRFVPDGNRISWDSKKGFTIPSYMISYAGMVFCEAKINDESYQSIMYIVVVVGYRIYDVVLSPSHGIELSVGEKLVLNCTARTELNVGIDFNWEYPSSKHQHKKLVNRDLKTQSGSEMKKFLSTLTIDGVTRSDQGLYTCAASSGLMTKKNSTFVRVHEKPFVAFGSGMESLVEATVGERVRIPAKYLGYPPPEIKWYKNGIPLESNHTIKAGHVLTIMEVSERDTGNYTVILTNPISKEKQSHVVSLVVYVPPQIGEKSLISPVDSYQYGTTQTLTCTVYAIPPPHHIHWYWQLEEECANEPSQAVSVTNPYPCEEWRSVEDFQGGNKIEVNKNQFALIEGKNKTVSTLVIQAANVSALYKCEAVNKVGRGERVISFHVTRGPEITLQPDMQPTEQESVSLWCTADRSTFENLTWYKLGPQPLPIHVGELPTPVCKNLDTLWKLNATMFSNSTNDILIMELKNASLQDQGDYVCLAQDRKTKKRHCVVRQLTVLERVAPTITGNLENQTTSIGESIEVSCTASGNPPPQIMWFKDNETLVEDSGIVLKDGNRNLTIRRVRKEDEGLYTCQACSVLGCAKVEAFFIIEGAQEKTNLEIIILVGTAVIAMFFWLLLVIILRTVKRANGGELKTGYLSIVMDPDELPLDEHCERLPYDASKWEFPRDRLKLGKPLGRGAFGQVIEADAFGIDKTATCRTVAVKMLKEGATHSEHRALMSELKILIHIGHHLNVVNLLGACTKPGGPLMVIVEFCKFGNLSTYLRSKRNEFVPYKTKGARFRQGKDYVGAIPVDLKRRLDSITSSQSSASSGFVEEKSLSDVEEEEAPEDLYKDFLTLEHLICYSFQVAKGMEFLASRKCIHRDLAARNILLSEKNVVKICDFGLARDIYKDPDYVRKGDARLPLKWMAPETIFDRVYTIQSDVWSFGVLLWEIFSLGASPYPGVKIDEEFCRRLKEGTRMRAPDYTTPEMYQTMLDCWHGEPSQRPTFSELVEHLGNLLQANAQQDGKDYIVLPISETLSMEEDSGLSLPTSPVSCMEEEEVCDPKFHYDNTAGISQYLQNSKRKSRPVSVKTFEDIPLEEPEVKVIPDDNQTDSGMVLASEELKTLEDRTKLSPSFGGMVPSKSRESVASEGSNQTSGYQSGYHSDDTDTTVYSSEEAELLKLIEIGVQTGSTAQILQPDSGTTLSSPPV

For `Cc1cc(C)c(/C=C2\C(=O)Nc3ccccc32)[nH]1` [SU5416], which “inhibition of VEGF-induced phosphorylation” value is on record?
The value was “inhibition of VEGF-induced phosphorylation”.
